How the values were obtained:
Assay type in all cases: physicochemical
[1] = Kinetic aqueous solubility / solubility in water of salt and co-crystal forms; conditions: aqueous
[2] = Approximate solubility in single solvents
From the text: (§1) In some embodiments, Compound I phosphate Form I, once formed, e.g., via the reactive crystallization methods disclosed herein, may be recrystallized from a variety of single solvents or binary solvent systems (e.g., solvent/anti-solvent systems) to promote desired physical characteristics such as crystal size. Recrystallization of Compound I phosphate Form I may occur with or without the addition of Compound I phosphate Form I seed material. The single solvents and binary solvent systems in which Compound I phosphate Form I may be recrystallized include, but are not limited to, MeOH, MeOH/EtOAc, DMA/MeCN, DMAc/toluene, DMF/MeCN, DMAc/MeCN, DMF/EtOAc, DMF/toluene, DMSO/MeCN, DMSO/MeCN, DMSO/IPA, NMP/MeCN, NMP/IPA, and NMP/EtOAc. A summary of the approximate solubility of Compound I phosphate Form I in various single solvents and binary solvent systems is provided in Tables I and II, respectively.

[3] = Solid-state chemical stability at various storage conditions
[4] = Dissolution in 50 mM sodium acetate solution, pH 5; conditions: pH of 5
Method: The dissolution of […] and […] was also evaluated in a 50 mM sodium acetate solution at a pH of 5 (FIG. 92).

[5] = Approximate solubility in 1:1 (v/v) binary solvents
From the text: as §1

[6] = Relative stability of solid forms (competitive slurries); conditions: statement in words

- kinetic aqueous solubility [1]: about 3 mg/mL
- Approximate Solubility ([2]; 1,4-dioxane, 20-80° C.): remained a slurry
- Approximate Solubility ([2]; 1-Propanol, 20-80° C.): remained a slurry
- Approximate Solubility ([2]; 2-Butanol, 20-80° C.): remained a slurry
- Approximate Solubility ([2]; 2-MeTHF, 20° C.): 0.64 mg-solid/ml-solvent
- Approximate Solubility ([2]; 2-Propanol/IPA, 20° C.): 1.02 mg-solid/ml-solvent
- Approximate Solubility ([2]; Acetic Acid, 20° C.): ~190 mg-solid/ml-solvent
- Approximate Solubility ([2]; Acetic Acid, 50° C.): >190 mg-solid/ml-solvent
- Approximate Solubility ([2]; Acetic Acid, 80° C.): >>190 mg-solid/ml-solvent
- Approximate Solubility ([2]; Acetone, 20° C.): 0.48 mg-solid/ml-solvent
- Approximate Solubility ([2]; Acetonitrile, 20° C.): 0.23 mg-solid/ml-solvent
- Approximate Solubility ([2]; DCM (form changes), 20° C.): 1.54 mg-solid/ml-solvent
- Approximate Solubility ([2]; DMAc, 50° C.): >78 mg-solid/ml-solvent
- Approximate Solubility ([2]; DMAc, 80° C.): >>78 mg-solid/ml-solvent
- Approximate Solubility ([2]; DMF, 50° C.): <70 mg-solid/ml-solvent
- Approximate Solubility ([2]; DMF, 80° C.): >70 mg-solid/ml-solvent
- Approximate Solubility ([2]; DMSO, 50° C.): >185 mg-solid/ml-solvent
- Approximate Solubility ([2]; DMSO, 80° C.): >>185 mg-solid/ml-solvent
- Approximate Solubility ([2]; EtOH/water, 20° C.): 22.7 mg-solid/ml-solvent
- Approximate Solubility ([2]; Ethanol, 20° C.): 2.46 mg-solid/ml-solvent
- Approximate Solubility ([2]; Ethyl acetate, 20° C.): 0.45 mg-solid/ml-solvent
- Approximate Solubility ([2]; Heptane, 20° C.): <LOD
- Approximate Solubility ([2]; Heptane, cell spans the 50° C. and 80° C. columns): remained a slurry
- Approximate Solubility ([2]; Hexane, 20-80° C.): API adhered to vial walls
- Approximate Solubility ([2]; Isopropyl acetate, 20° C.): 0.37 mg-solid/ml-solvent
- Approximate Solubility ([2]; MEK, 20° C.): 2.14 mg-solid/ml-solvent
- Approximate Solubility ([2]; MIBK, 20° C.): 0.31 mg-solid/ml-solvent
- Approximate Solubility ([2]; MTBE, 20° C.): 0.16 mg-solid/ml-solvent
- Approximate Solubility ([2]; Methanol, 20° C.): 12.56 mg-solid/ml-solvent
- Approximate Solubility ([2]; NMP, 50° C.): >135 mg-solid/ml-solvent
- Approximate Solubility ([2]; NMP, 80° C.): >>135 mg-solid/ml-solvent
- Approximate Solubility ([2]; THF, 20° C.): 0.48 mg-solid/ml-solvent
- Approximate Solubility ([2]; Toluene, 20° C.): 1.34 mg-solid/ml-solvent
- Approximate Solubility ([2]; Water, 20° C.): 12.16 mg-solid/ml-solvent
- % AN ([3]; 4° C., 1 month): 97.1%
- % LS ([3]; 4° C., 1 month): 100.8%
- % AN ([3]; 25° C./60% RH, 1 month): 97.1%
- % LS ([3]; 25° C./60% RH, 1 month): 100.8%
- % AN ([3]; 40° C./75% RH, 1 month): 97.2%
- % LS ([3]; 40° C./75% RH, 1 month): 100.7%
- % AN ([3]; 40° C./75% RH, open, 1 month): 97.1%
- % LS ([3]; 40° C./75% RH, open, 1 month): 100.0%
- % AN ([3]; 60° C., 1 month): 97.1%
- % LS ([3]; 60° C., 1 month): 100.7%
- % AN ([3]; Initial Time): 97.1%
- chemical stability ([3]; up to about 40° C./75% RH for about 3 months): chemically stable
- chemical stability ([3]; various conditions for about 1 month): chemically stable
- % AN ([3]; −20° C., 1 month): 96.9%
- % LS ([3]; −20° C., 1 month): 100.9%
- Approximate Solubility ([5]; DMAc/2-MeTHF 1:1 (v/v), 50° C.): ~17.2 mg-solid/ml-solvent
- Approximate Solubility ([5]; DMAc/Acetone 1:1 (v/v), 50° C.): ~11.3 mg-solid/ml-solvent
- Approximate Solubility ([5]; DMAc/EtOAc 1:1 (v/v), 80° C.): ~10.8 mg-solid/ml-solvent
- Approximate Solubility ([5]; DMAc/IPA 1:1 (v/v), 80° C.): ~21 mg-solid/ml-solvent
- Approximate Solubility ([5]; DMAc/IPAc 1:1 (v/v), 50° C.): ~7.7 mg-solid/ml-solvent
- Approximate Solubility ([5]; DMAc/MIBK 1:1 (v/v), 50° C.): ~15 mg-solid/ml-solvent
- Approximate Solubility ([5]; DMAc/MeCN 1:1 (v/v), 50° C.): ~11.5 mg-solid/ml-solvent
- Approximate Solubility ([5]; DMF/2-MeTHF 1:1 (v/v), 50° C.): ~14.3 mg-solid/ml-solvent
- Approximate Solubility ([5]; DMF/Acetone 1:1 (v/v), 50° C.): ~19.5 mg-solid/ml-solvent
- Approximate Solubility ([5]; DMF/EtOAc 1:1 (v/v), 50° C.): ~10.8 mg-solid/ml-solvent
- Approximate Solubility ([5]; DMF/IPA 1:1 (v/v), 50° C.): ~14 mg-solid/ml-solvent
- Approximate Solubility ([5]; DMF/IPAc 1:1 (v/v), 50° C.): ~13.7 mg-solid/ml-solvent
- Approximate Solubility ([5]; DMF/MIBK 1:1 (v/v), 80° C.): ~6 mg-solid/ml-solvent
- Approximate Solubility ([5]; DMF/MIBK 1:1 (v/v), cell spans the 20° C. and 50° C. columns): remained a thin slurry
- Approximate Solubility ([5]; DMF/MeCN 1:1 (v/v), 50° C.): ~11 mg-solid/ml-solvent
- Approximate Solubility ([5]; DMSO/2-MeTHF 1:1 (v/v), 20° C.): >51.5 mg-solid/ml-solvent
- Approximate Solubility ([5]; DMSO/2-MeTHF 1:1 (v/v), 50° C.): >>51.5 mg-solid/ml-solvent
- Approximate Solubility ([5]; DMSO/2-MeTHF 1:1 (v/v), 80° C.): >>>51.5 mg-solid/ml-solvent
- Approximate Solubility ([5]; DMSO/Acetone 1:1 (v/v), 20° C.): >30 mg-solid/ml-solvent
- Approximate Solubility ([5]; DMSO/Acetone 1:1 (v/v), 50° C.): >>30 mg-solid/ml-solvent
- Approximate Solubility ([5]; DMSO/Acetone 1:1 (v/v), 80° C.): >>>30 mg-solid/ml-solvent
- Approximate Solubility ([5]; DMSO/EtOAc 1:1 (v/v), 50° C.): >51.5 mg-solid/ml-solvent
- Approximate Solubility ([5]; DMSO/EtOAc 1:1 (v/v), 80° C.): >>51.5 mg-solid/ml-solvent
- Approximate Solubility ([5]; DMSO/IPA 1:1 (v/v), 80° C.): >41 mg-solid/ml-solvent
- Approximate Solubility ([5]; DMSO/IPAc 1:1 (v/v), 20° C.): >32 mg-solid/ml-solvent
- Approximate Solubility ([5]; DMSO/IPAc 1:1 (v/v), 50° C.): >>32 mg-solid/ml-solvent
- Approximate Solubility ([5]; DMSO/IPAc 1:1 (v/v), 80° C.): >>>32 mg-solid/ml-solvent
- Approximate Solubility ([5]; DMSO/MIBK 1:1 (v/v), 50° C.): >50.5 mg-solid/ml-solvent
- Approximate Solubility ([5]; DMSO/MIBK 1:1 (v/v), 80° C.): >>50.5 mg-solid/ml-solvent
- Approximate Solubility ([5]; DMSO/MeCN 1:1 (v/v), 50° C.): >33.5 mg-solid/ml-solvent
- Approximate Solubility ([5]; DMSO/MeCN 1:1 (v/v), 80° C.): >>33.5 mg-solid/ml-solvent
- Approximate Solubility ([5]; HOAC/2-MeTHF 1:1 (v/v), 80° C.): ~15.3 mg-solid/ml-solvent
- Approximate Solubility ([5]; HOAC/Acetone 1:1 (v/v), 50° C.): >43 mg-solid/ml-solvent
- Approximate Solubility ([5]; HOAC/Acetone 1:1 (v/v), 80° C.): >>43 mg-solid/ml-solvent
- Approximate Solubility ([5]; HOAC/EtOAc 1:1 (v/v), 50° C.): ~13.8 mg-solid/ml-solvent
- Approximate Solubility ([5]; HOAC/EtOAc 1:1 (v/v), 80° C.): >41.5 mg-solid/ml-solvent
- Approximate Solubility ([5]; HOAC/IPA 1:1 (v/v), 80° C.): >44.5 mg-solid/ml-solvent
- Approximate Solubility ([5]; HOAC/IPAc 1:1 (v/v), 50° C.): ~8.3 mg-solid/ml-solvent
- Approximate Solubility ([5]; HOAC/IPAc 1:1 (v/v), 80° C.): >8.3 mg-solid/ml-solvent
- Approximate Solubility ([5]; HOAC/MIBK 1:1 (v/v), 50° C.): ~22 mg-solid/ml-solvent
- Approximate Solubility ([5]; HOAC/MIBK 1:1 (v/v), 80° C.): >22 mg-solid/ml-solvent
- Approximate Solubility ([5]; HOAC/MeCN 1:1 (v/v), 20° C.): >30.5 mg-solid/ml-solvent
- Approximate Solubility ([5]; HOAC/MeCN 1:1 (v/v), 50° C.): >>30.5 mg-solid/ml-solvent
- Approximate Solubility ([5]; HOAC/MeCN 1:1 (v/v), 80° C.): >>>30.5 mg-solid/ml-solvent
- Approximate Solubility ([5]; NMP/2-MeTHF 1:1 (v/v), 20° C.): ~12 mg-solid/ml-solvent
- Approximate Solubility ([5]; NMP/2-MeTHF 1:1 (v/v), 80° C.): ~24 mg-solid/ml-solvent
- Approximate Solubility ([5]; NMP/Acetone 1:1 (v/v), 50° C.): >24 mg-solid/ml-solvent
- Approximate Solubility ([5]; NMP/Acetone 1:1 (v/v), 80° C.): >>24 mg-solid/ml-solvent
- Approximate Solubility ([5]; NMP/IPAc 1:1 (v/v), 50° C.): ~15 mg-solid/ml-solvent
- Approximate Solubility ([5]; NMP/IPAc 1:1 (v/v), 80° C.): >44 mg-solid/ml-solvent
- Approximate Solubility ([5]; NMP/MeCN 1:1 (v/v), 80° C.): >27.5 mg-solid/ml-solvent
Structure (SMILES): Cc1noc(C)c1-c1cc(C(O)(c2ccccn2)c2ccccn2)c2nc(C3CC3)[nH]c2c1 [Compound I phosphate Form I, (2-cyclopropyl-6-(3,5-dimethylisoxazol-4-yl)-1H-benzo[d]imidazol-4-yl)di(pyridin-2-yl)methanol]
- dissolution [4]: dissolve rapidly and maintain solubility for about 24 hours
- thermodynamic / physical stability of the solid form [6]: most thermodynamically stable form of Compound I phosphate in most solvents
